Target: T1, mTOR kinase (Homo sapiens, UniProt P42345)
T1 construct: purchased Invitrogen Corp. (Madison, Wis., USA)
Assay: Z'-LYTE biochemical assay for mTOR (Invitrogen)
Procedure: The Z′-LYTE® biochemical assay for mTOR
The mTOR kinase activity was assessed using the Z′-LYTE® biochemical assay of Invitrogen Corp. (Madison, Wis., USA).

T1 sequence (P42345 1360-2549 limits assumed): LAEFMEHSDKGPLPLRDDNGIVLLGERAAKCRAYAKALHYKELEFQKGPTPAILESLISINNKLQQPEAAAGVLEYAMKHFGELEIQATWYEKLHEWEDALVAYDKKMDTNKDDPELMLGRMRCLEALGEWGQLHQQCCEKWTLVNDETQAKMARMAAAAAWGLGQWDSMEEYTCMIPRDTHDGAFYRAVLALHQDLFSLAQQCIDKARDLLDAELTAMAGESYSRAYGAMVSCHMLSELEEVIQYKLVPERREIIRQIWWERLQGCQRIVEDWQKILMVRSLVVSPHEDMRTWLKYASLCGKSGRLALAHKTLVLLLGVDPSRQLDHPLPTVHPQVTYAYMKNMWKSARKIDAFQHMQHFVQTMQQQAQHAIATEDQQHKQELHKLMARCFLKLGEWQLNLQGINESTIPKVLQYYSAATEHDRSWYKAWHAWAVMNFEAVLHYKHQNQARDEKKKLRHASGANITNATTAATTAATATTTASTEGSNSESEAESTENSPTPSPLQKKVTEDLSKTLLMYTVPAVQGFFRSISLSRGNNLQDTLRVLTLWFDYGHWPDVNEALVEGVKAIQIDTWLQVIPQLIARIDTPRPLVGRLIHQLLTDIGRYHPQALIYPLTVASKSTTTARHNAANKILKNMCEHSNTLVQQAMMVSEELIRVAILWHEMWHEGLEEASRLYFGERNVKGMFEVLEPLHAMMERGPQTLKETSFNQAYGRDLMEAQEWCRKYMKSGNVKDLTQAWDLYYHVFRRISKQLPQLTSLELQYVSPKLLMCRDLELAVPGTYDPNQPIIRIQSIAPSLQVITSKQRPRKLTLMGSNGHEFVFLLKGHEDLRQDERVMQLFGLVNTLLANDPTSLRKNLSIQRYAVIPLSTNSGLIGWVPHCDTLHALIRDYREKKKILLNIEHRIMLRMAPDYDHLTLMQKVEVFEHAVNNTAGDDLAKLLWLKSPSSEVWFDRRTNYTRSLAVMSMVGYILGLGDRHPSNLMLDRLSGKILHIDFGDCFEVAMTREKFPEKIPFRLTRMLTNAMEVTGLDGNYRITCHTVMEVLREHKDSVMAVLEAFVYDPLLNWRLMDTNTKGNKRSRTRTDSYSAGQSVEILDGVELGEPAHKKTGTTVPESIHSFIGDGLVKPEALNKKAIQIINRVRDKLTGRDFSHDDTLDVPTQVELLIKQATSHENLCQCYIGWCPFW

Nc1ncc(-c2nc(N3CCOCC3)nc3c2cnn3C2CCOCC2)cn1 [Example 1, 5-(1-(2H-3,4,5,6-tetrahydropyran-4-yl)-6-morpholin-4-ylpyrazolo[4,5-e]pyrimidin-4-yl)pyrimidine-2-ylamine]
IC50: < 1000 nM

CN1CCN(C(=O)N2CCC(n3ncc4c(-c5cnc(N)nc5)nc(N5CCOCC5)nc43)CC2)CC1 [Example 4, 4-[4-(2-aminopyrimidin-5-yl)-6-morpholin-4-ylpyrazolo[5,4-d]pyrimidinyl]piperidyl 4-methylpiperazinyl ketone]
IC50: < 1000 nM

Reference: US8586582B2, “PI3K/mTOR kinase inhibitors” (Xcovery Holding Company, LLC, priority 2008, dated 2013)
